Test results reported in article PMC12858405, “Ideal efficacy photoswitching for chromocontrol of TRPC4/5 channel functions in live tissues” (Nature Chemical Biology, 2026).

Key:
TRPC5 = settings: ag. = agonistic effect; read-out: EC50 [nM] simple agonism, TRPC5; cited from earlier work
heteromeric TRPC4:TRPC1 = target: T1, heteromeric TRPC4:TRPC1 (Homo sapiens, UniProt Q9UBN4); assay: Whole-cell recordings, HEK293 co-expressing TRPC4 and TRPC1; format: cell-based; settings: 30 nM
T1 construct: expressed in transfected cells; host or cells: HEK293, transiently transfected
Source text: Müller, Niemeyer, et al., Schaefer & Thorn-Seshold 2025: Ideal Efficacy Photoswitching of TRPC4/5 in Tissue 3.3 Activation of heteromeric TRPC4:TRPC1 and TRPC5:TRPC1
Supplementary Figure 15: Photoswitching of ionic currents through heteromeric TRPC4:TRPC1 and TRPC5:TRPC1 channel complexes. Whole cell recordings from HEK293 cells that were transiently transfected to express the indicated TRPC isoforms were obtained in the whole cell mode with a voltage and photoswitching paradigm as illustrated in (A). (B-D) Superimposed recordings of 20 consecutive sweeps are shown for cells that ony express TRPC4 or TRPC5 (left), and for cells that co-express the respective TRPC channel along with TRPC1 (right). Note the characteristic change of the current-voltage relationship with smaller inward currents and stronger outward rectification in cells that co-express TRPC1. […]
or 10 nM (all other panels). The data shown are representative for 4-12 patched cells, each.
Currents through heteromeric complexes that are composed of TRPC4:TRPC1 or TRPC5:TRPC1 subunits can be unequivocally recognized on the basis of their unique biophysical properties with smaller unitary and global inward current amplitudes and a marked outward rectification.44 We show […]
also the heteromeric complexes TRPC5:TRPC1 and TRPC4:TRPC1 that are formed upon co-expression with TRPC1 (Supplementary Fig. 15). […]

T1 sequence (Q9UBN4 whole entry): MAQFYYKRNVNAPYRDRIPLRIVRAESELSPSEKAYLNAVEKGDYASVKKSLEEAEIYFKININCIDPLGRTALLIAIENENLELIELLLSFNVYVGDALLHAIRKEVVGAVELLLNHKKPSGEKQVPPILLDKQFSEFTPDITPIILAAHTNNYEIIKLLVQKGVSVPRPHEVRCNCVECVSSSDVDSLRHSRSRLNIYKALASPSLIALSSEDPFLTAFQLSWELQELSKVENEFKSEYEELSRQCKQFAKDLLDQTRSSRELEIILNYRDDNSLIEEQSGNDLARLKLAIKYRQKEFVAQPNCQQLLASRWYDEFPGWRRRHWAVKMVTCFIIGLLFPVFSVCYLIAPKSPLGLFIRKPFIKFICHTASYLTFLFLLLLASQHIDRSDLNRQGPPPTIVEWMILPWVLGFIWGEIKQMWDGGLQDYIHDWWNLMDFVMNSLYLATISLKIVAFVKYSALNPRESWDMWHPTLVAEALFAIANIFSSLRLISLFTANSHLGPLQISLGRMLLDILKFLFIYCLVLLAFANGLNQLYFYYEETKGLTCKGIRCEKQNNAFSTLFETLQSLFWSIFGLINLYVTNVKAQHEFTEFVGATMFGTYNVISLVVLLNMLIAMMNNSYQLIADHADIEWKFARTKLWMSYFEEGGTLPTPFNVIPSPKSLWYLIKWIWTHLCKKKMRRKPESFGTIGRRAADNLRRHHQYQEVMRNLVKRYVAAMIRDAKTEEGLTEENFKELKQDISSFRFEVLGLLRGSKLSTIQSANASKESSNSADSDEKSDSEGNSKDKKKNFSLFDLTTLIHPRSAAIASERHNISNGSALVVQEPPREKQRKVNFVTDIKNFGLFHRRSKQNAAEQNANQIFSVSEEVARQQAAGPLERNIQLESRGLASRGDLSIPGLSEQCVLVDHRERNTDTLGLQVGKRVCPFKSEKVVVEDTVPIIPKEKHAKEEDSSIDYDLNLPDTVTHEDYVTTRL
T1 sequence (P48995 whole entry partner): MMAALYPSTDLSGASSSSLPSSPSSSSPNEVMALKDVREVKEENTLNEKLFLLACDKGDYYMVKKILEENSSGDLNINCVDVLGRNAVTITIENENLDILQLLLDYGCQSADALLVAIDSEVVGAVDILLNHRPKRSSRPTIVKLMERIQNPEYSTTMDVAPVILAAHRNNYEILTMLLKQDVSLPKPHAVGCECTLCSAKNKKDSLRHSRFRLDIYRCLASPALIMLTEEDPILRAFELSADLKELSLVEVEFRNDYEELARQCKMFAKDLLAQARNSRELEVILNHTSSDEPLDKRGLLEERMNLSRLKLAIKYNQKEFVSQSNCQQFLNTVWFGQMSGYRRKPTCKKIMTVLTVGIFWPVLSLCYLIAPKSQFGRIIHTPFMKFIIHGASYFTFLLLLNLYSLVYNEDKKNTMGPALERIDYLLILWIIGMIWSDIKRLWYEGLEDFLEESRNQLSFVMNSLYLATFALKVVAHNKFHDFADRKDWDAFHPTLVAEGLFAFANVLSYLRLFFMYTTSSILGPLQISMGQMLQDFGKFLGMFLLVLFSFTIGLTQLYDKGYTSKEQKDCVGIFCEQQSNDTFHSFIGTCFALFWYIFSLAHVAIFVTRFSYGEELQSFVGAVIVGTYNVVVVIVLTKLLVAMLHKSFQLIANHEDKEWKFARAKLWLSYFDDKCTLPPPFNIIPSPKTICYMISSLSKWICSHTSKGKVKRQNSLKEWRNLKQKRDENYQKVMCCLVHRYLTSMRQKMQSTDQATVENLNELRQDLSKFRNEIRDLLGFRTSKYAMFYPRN

Chromocontrol over heteromeric TRPC4:TRPC1 currents versus homomeric channels (heteromeric TRPC4:TRPC1) | SMILES | EC50 (TRPC5) [nM]
– | Cn1c(=O)n(CCCO)c(=O)c2c1nc(Oc1ccc(Cl)c(OC(F)(F)F)c1)n2Cc1ccc(Cl)cc1 [AM237, reference compound] | 20
comparable chromocontrol | Cn1c(=O)n(CCCO)c(=O)c2c1nc(Oc1ccc(N=Nc3ccccc3)c(Cl)c1)n2Cc1ccc(Cl)cc1 [AzHC] | –
comparable chromocontrol | Cn1c(=O)n(CCCO)c(=O)c2c1nc(Oc1ccc(N=Nc3ccccc3)c(OC(F)(F)F)c1)n2Cc1ccc(Cl)cc1 [AzPico] | –
